Patent US20050163778A1, “Extracorporeal photopheresis in combination with anti-TNF treatment” (priority 2003, published 2005)

System: TNFα production by monocyte-derived dendritic cells
Assay: Examples 2-4: TNFα production by LPS-stimulated monocyte-derived dendritic cells (ELISA of culture supernatants)
Assay type: cell-based, human
Details: 48 hours
Protocol: In examples 1-5, Monocyte-derived dendritic cells were obtained as follows: PBMC were isolated from the peripheral blood of healthy donors by fractionation over Ficoll-Hypaque gradient centrifugation. Monocytes were positively selected using the MACS CD14 isolation kit and the Automacs system (Miltenyi Biotec, Germany). CD14^+ monocytes were cultured in complete RPMI supplemented with 40 ng/ml IL-4 and GM-CSF (R&D Systems) for 5 days. Cytokine secretion was induced by stimulation of the dendritic cells with lypopolysacharides (“LPS”, Sigma). Standard ELISA procedures were used to measure TNFα and IL-12 (R&D Systems) levels in culture supernatants.
Culture supernatants were harvested from these cultures at 48 hours for measurement of TNFα production. […] While each of these treatments represent a reduction from the baseline value of over 1000 pg/ml, the levels dropped to an average of less than 50 pg/ml when the method of the invention was used.
Culture supernatants were harvested from these cultures at 48 hours for quantitation of TNFα production. […] While each of these treatments represent a reduction from the baseline value of over 2300 pg/ml, the levels dropped to about 100 pg/ml when the method of the invention was used.
Culture supernatants were harvested from these cultures at 48 hours for measurement of TNFα production. Another group of dendritic cells were similarly treated and the culture supernatants were harvested from these cultures at 48 hours for quantitation of TNFα production.

infliximab [Remicade mAb]
TNFα in culture supernatant (Example 2, increasing quantities of LPS, Remicade mAb 200 ng/ml, ECP-treated CD15+ cells 5×10^5 cells/well, baseline over 1000 pg/ml): about 100 pg/ml | TNFα in culture supernatant (Example 3, 0.1 mg/ml LPS, Remicade mAb 200 ng/ml, ECP-treated CD15+ cells 5×10^5 cells/well, baseline over 2300 pg/ml): about 500 pg/ml | TNFα in culture supernatant (Example 4, 8 ng/ml Remicade mAb, alone or with ECP): greater than 1300 pg/ml | TNFα in culture supernatant (Example 4, about 2 ng/ml Remicade mAb, alone or with ECP): ~1000 pg/mL
